Columns and labels:
DRG-OPC co-cultures = experiment: Axon damage after lysolecithin demyelination in microfluidic chambers, drug applied to neuronal cell body chamber; format: cell-based, mouse; conditions: 15 µM SR-18292 added together with pioglitazone to cell body chamber
Procedure: Before adding lysolecithin to microfluidic chambers, the inventors used an Axio Observer Z1 inverted motorized microscope (Zeiss, Germany), for live imaging to identify the myelinated axonal segments (video 11, online resource). Images of the myelinated axonal segments were saved with x-y coordinates of the stage position. The effect of live imaging on the axons and myelin was determined by imaging microfluidic chamber containing both mKate2 expressing DRGs and eGFP-expressing OPC where imaged at 20x magnification (Plan-Apochromat 0.8 NA Ph 2 M27 objective, Zeiss, Germany) for 30 minutes before returning the microfluidic chambers to the incubator.
The inventors then added lysolecithin for 2 hours before live imaging the previously imaged axonal segments again, using the x-y co-ordinate of the stage position. These live images of axons, pre and post lysolecithin, allowed the assessment of the demyelination of the axonal segments (based on M1-M4-eGFP fluorescence) as well as axonal damage following acute demyelination (based on appearance of mKate2 fluorescence). […] Meanwhile, axons were classed as fragmented when the mKate2 fluorescence was disrupted and not continuous in at least one part of the axon. […] Following exposure to lysolecithin, demyelination was confirmed based on disruption or loss of M1-M4-eGFP fluorescence. […]

DRG neurons [1] = experiment: Seahorse analysis of mitochondrial respiration in DRG neurons; conditions: sodium azide 100 µM for 16 hours
Procedure: DRG neuronal cells were cultured on V7 Seahorse 24-well cell culture microplates (Agilent Technologies), in maintenance medium in a 5% CO2 37° C. incubator. […] Plates were incubated for 30 mins at 37° C. (without CO2), before entry into the Seahorse XFe24 Extracellular Flux Analyser (Agilent). Three measurements were taken basally, and three measurements taken after injection of each drug to either inhibit ATP-linked respiration, uncouple respiration or inhibit the respiratory chain. Mitochondrial respiration was calculated by subtracting the first OCR measurement following injection of antimycin/rotenone from the third basal OCR measurement. Normalisation of OCR to relative protein content was achieved following Sulforhodamine B (SRB) staining of all cell wells. Data for each treatment groups was averaged from between 4-5 replicate wells.

DRG neurons [2] = conditions: 17 hours
Procedure: Complex IV histochemistry was performed as described below and images were obtained using bright field microscopy. The intensity of the complex IV reactive product was assessed using FIJI and densitometry to analyse complex IV activity at a single cell level.

DRG axons = experiment: Lysolecithin exposure of unmyelinated DRG cultures (axon damage); format: cell-based, mouse; conditions: 0.005 mg/ml lysolecithin for 2 hours
[3] = system: cerebellar slices from Shiverer mice; experiment: Mitochondrial dynamics in dysmyelinated Purkinje cell axons of Shiverer cerebellar slices exposed to lysolecithin; format: cell-based, mouse; conditions: chronically dysmyelinated axons
Procedure: Cerebellar slices were prepared as previously described. Briefly, wild type C57BL/6 and Shiverer mice pups were sacrificed at P10 and cerebellum was placed in ice-cold dissection medium. The sagittal slices were then sectioned into 300 µm thick slices and placed on a membrane insert. Picospritzer III (Parker, US) and a micromanipulator was used to inject mEOS2-Lentivirus (titre 7-8*10^9; aliquots stored at -80° C.) containing 0.025% of Fast-Green (FG, Sigma F7258, UK) in to the Purkinje cell body layer. […]
Live imaging of mitochondria in Purkinje cell axon was performed at DIV14, directly after removing the lysolecithin. […] Newly transported mitochondria, either appearing from the neuronal cell body to the most proximal 20 micron axonal segment or distal axonal mitochondria appearing in the 20 microns long axonal segment of the most distal photoconverted segment, were counted visually and confirmed using the kymograph. […] For each mitochondrion appearing, the direction of movement was noted, as well as the area of the mitochondrion was measured manually, using the measure function in Fiji, when it first appeared in the axon.
Kymographs of the time lapse images were generated by using the ImageJ plugin KymographClear2.0 [40]. Mitochondrial speed of movement was determined by using the Kymotoolbox ImageJ plugin [80]. […]

## Cc1ccc(CN(CC(O)COc2cccc3[nH]ccc23)C(C)(C)C)cc1 (stereo not drawn) [PGC1α inhibitor, SR-18292]
DRG-OPC co-cultures
  effect on the protective effect of pioglitazone on demyelinated axons: significantly diminished

## [N-]=[N+]=[N-] [sodium azide]
DRG neurons [1]
  cell viability: without compromising cell viability
DRG neurons [2]
  highest dose which did not impact cell viability and resulted in complex IV inhibition: 100 µM

## L-α-Lysophosphatidylcholine [lysolecithin]
DRG axons
  damage to DRG axons in unmyelinated cultures: without damaging the DRG axons
[3]
  axonal mitochondrial dynamics of newly transported mitochondria: does not significantly impact
